From PubChem BioAssay (NCI) come the findings set out here.

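Dose response: 5 concentrations. Exposure: 48 h. Format: 96-well plates. Endpoint: linear interpolation; highest concentration if not reached. TGI: concentration producing complete growth inhibition.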 A value given as a limit tells only on which side of the number the result lay.

Holding throughout (assay): NCI-60 cell line screen, 48 h
Test [1] has as its system HOP-62 NSCLC.
Test [2] relates to DMS 273 small cell lung.
The test system of test [3] is DMS 114 small cell lung.
Test [4] concerns M19-MEL melanoma.
Test [5] concerns DLD-1 colon.
For test [6], the system named is LXFL 529 NSCLC.
The test system of test [7] is RXF-631 renal.
Test [8] deals with KM20L2 colon.
The subject of test [9] is HOP-18 NSCLC.
Test [10] has as its system SNB-78 CNS.
For test [11], the system named is XF 498 CNS.

Regarding `Cc1sc2nc3n(c(=O)c2c1C)N=CN(c1ccc(Cl)cc1)C3`, the TGI in test [1] is greater than 100 µM.
For `COc1cc(C2c3cc4c(cc3C(=O)C3CCC(=O)N32)OCO4)cc(OC)c1O` (stereo not drawn), the TGI in test [1] is greater than 50 µM.
In turn, `O=C1OC([C@H](O)c2cccnc2)c2ccccc21` (stereo partly drawn) came in with a TGI in test [1] greater than 10 µM.
In test [1], `CCSC1=N/C(=C\c2ccco2)C(=O)N1` registered a TGI greater than 100 µM.
With `O=CNc1ccccc1OCCOc1ccccc1NC=O`, the TGI in [1] was greater than 100 µM.
For the compound `CCOC(=O)c1c[nH]c(C(=O)C=[N+]=[N-])c1C1CCN(CC)C1=S` (stereo not drawn), the TGI in [1] was greater than 100 µM.
In turn, `CN(N=O)c1nc2c(C(N)=O)ncn2s1` came in with a TGI in test [1] greater than 100 µM.
For `COc1cc2cc(C(=O)N3CC(CCl)c4ccc([N+](C)(C)Cc5ccccc5[N+](=O)[O-])cc43)[nH]c2c(OC)c1OC` (stereo not drawn), the TGI in test [1] was 18.1 µM.
In turn, `CC(=O)Nc1cccc(N2C(=O)/C(=C\c3cccc(Oc4ccccc4)c3)SC2c2ccccc2)c1` (stereo not drawn) yielded a TGI in test [1] greater than 100 µM.
`O=C(Nc1ccccc1)OCCN=C1c2ccccc2CCc2ccccc21` registered a TGI in [1] of 49.4 µM.
In test [1], `O=[N+]([O-])c1cccc2nccc(NCCN3CCOCC3)c12` registered a TGI of 35.6 µM.
The same measure, in the same setting: then `CCCc1nc2c(n1CC)C(=O)c1ccccc1C2=O`, with greater than 100 µM; and `CO/C(=N\N=C\c1ccc(Cl)c(Cl)c1)c1ccncc1`, with greater than 10 µM.
The same measure, in the same setting: then `O=[N+]([O-])/C(Cl)=C(/C(Cl)=C(Cl)Cl)N1CCOCC1`, with 2.5 µM; and `CC(=O)[C@H]1[C@H](O)C[C@@]2(C)[C@@H]3CCc4cc(O)c(OC5OC(CO)C(O)C(O)C5O)cc4C3(C)C(=O)C[C@]12C` (stereo partly drawn), with greater than 100 µM; and `CC(C)(C)OC(=O)CCCCCNC(=O)CCCCCNC(=O)CCC(CN(CC(=O)OCc1ccccc1)CC(=O)OCc1ccccc1)N(CC(=O)OCc1ccccc1)CC(=O)OCc1ccccc1` (stereo not drawn), with greater than 100 µM.
For the compound `C=CCN1CCC(c2cc(C(=O)OCC)[nH]c2-c2cc(C)no2)C1=O` (stereo not drawn), in test [1], the TGI is greater than 100 µM.
On to `COC(=O)/C=C/[C@@H]1[C@H](C)N1S(=O)(=O)c1ccc(C)cc1` (stereo partly drawn), for which, in test [1], the TGI was greater than 100 µM.
Turning to `Cn1nnc2c3c(N(CCO)CCO)ccnc3ccc21`, in [1], the TGI is greater than 100 µM.
On to `Cc1ccc(S(=O)(=O)N2CCNCCN(S(=O)(=O)c3ccc(C)cc3)CCNCC2)cc1`, for which the TGI in test [1] turned out to be 34.8 µM.
On the same count and under the same terms, under `Cc1ccc(S(=O)(=O)N/N=C2/CCC3(O)CC2(C)CCC2[C@H]3CC2(C)C)cc1` (stereo partly drawn) stands greater than 100 µM; under `C[C@@H]1CC[C@H]2[C@H](C)C(OC3O[C@@H]4O[C@@]5(C)CC[C@H]6[C@H](C)CC[C@@H]([C@@H]3C)[C@@]46O5)O[C@@H]3O[C@@]4(C)CC[C@@H]1[C@]32O4` (stereo partly drawn), greater than 100 µM; under `COC(=O)c1ccc2c(c1)CC1(C2)Cc2ccccc2C1=O` (stereo not drawn), greater than 100 µM.
Compound `Cc1c(/C=N/NC(=S)N2CCCCC2)c(=O)n(-c2ccccc2)n1C` showed a TGI in [1] greater than 100 µM.
On to `O=C(NCCNCCNC(=O)c1cc(-c2ccccc2)nc2ccccc12)c1cc(-c2ccccc2)nc2ccccc12`, for which, in test [1], the TGI was 3.26 µM.
`COc1ccc(/C=C\c2cc(OC)c(OC)c(OC)c2)cc1`: the TGI in test [1], in test [2], in test [3], in test [4], in [5] and in test [6] was greater than 100 µM in each case. For the same compound, in test [7], the TGI was greater than 100 µM.
Regarding `CCOC(=O)C(=CNc1ccc(F)c(F)c1)C(=O)OCC`, in test [1], the TGI is greater than 100 µM.
Still for that read-out and setting: under `CC(=O)N1C(Nc2nccs2)CCN1c1ccccc1` (stereo not drawn) stands greater than 10 µM; under `O=C1NCN(c2ccccc2)C12CCN(CC1COc3ccccc3O1)CC2` (stereo not drawn), 52.8 µM; under `C1CSCC2(COC2)CSCCSCC2(COC2)CS1`, greater than 100 µM.
In test [1], `CC(Cn1c2c(c3cc(O)ccc31)CCc1ccc(O)cc1-2)N(C)C` (stereo not drawn) displayed a TGI of 31 µM.
In [1], `CCCCCCCCCCCCCCCCNC(=O)/C(=C\c1ccc(Cl)c(Cl)c1)NC(=O)c1ccccc1` registered a TGI of 51.6 µM.
Turning to `COc1cc([C@@H]2c3cc4c(cc3[C@@H](NCc3cccc(C#N)c3)C3COC(=O)[C@@H]32)OCO4)cc(OC)c1O` (stereo partly drawn), the TGI is 1.79 µM in [1]; 5.89 µM in test [2]; 4.63 µM in test [8]; 9.19 µM in test [3]; 50.3 µM in test [4]; greater than 100 µM in [9]. The TGI in [5] is 12.7 µM; in [6], greater than 100 µM; in test [7], 4.64 µM.
Consider `CCOC(=O)CCC(NC(=O)c1ccc(NC(OC)c2nc3cc(C(F)(F)F)ccc3nc2-c2ccccc2)cc1)C(=O)OCC` (stereo not drawn), for which the TGI was 31.2 µM in test [1]; 21 µM in [2]; 27.2 µM in test [8]; 30.7 µM in test [3]; 29.2 µM in [4]; 44.5 µM in test [9]. For the same compound, the TGI in [10] came to 37.3 µM; in test [5], 24.1 µM; in test [6] it was 20.3 µM; in test [7], 29.2 µM.
In the case of `CCOc1ccc(NC(=O)C(=O)Nn2c(N)nnc2N)cc1`, the TGI in [1] is greater than 100 µM.
Still for that read-out and setting: under `CC(C)(C)OC(=O)N1CCCC1C(=O)NC(c1ccccc1)c1ccccc1` (stereo not drawn) stands greater than 100 µM; under `CC1=CCC(C(C)(C)NC(=O)c2ccccc2)C/C1=N/O` (stereo not drawn), greater than 100 µM; under `O=[N+]([O-])c1ccc(-c2nn3c(C45CC6CC(CC(C6)C4)C5)nnc3s2)c(Cl)c1`, greater than 100 µM.
In turn, `O=c1c(Sc2c(SCSc3cnc4ccccc4c3Sc3c[nH]c4ccccc4c3=O)cnc3ccccc23)c[nH]c2ccccc12` returned a TGI in [1] greater than 100 µM.
Regarding `COc1cc([C@@H]2c3cc4c(cc3[C@@H](Nc3ccc(Cl)cc3C(=O)c3ccccc3)[C@H]3COC(=O)[C@H]23)OCO4)cc(OC)c1OC`, in test [1], the TGI is greater than 100 µM.
With `Cc1ccc2nc(NS(=O)(=O)c3cc(C)c(Cl)cc3S)[nH]c2c1`, the TGI in test [1] was greater than 100 µM.
Same read-out and setting: then `COc1ccc(-c2nc(Nc3ccccc3)sc2Cc2sc(Nc3ccccc3)nc2-c2ccc(OC)cc2)cc1`, with greater than 100 µM; and `CC(C)[C@H]1NC(=O)[C@H]2N=C(S[C@H]2C)[C@@H]2CCCN2C(=O)[C@H](Cc2ccccc2)NC(=O)[C@@H]2CSC(=N2)[C@@H](Cc2ccccc2)NC(=O)[C@@H]2CSC1=N2`, with greater than 50 µM.
Regarding `O=C(Cn1c2ccc(Br)cc2c2nc3ccccc3nc21)Nc1ccccc1`, in test [1], the TGI is greater than 100 µM.
In test [1], `C1CCCN(NC2=NCCO2)CC1` displayed a TGI greater than 100 µM.
In turn, `CCCCCCCCCCCCOCC1(COCCCCCCCCCCCC)COC(c2ccc(N)cc2)OC1` gave a TGI in [1] greater than 100 µM.
Regarding `O=[N+]([O-])c1cccc(Nc2nc(Cl)nc(Cl)n2)c1`, the TGI in test [1], in test [2], in test [8], in test [4], in test [10] and in [5] was greater than 100 µM each time. Besides, the TGI in test [11], in [6] and in test [7] was greater than 100 µM each time.
